Test results reported in the NIST ThermoML archive (doi:10.1016/j.tca.2015.07.011).
“And” between values parts separate entries of the source, which are not always exact repeats. Equal values may be shown once. ± gives the expanded uncertainty stated by the source.

Assays:
[1] = for mass density: 293 K, 101.33 kPa, Pycnometric method; for vapor or sublimation pressure: Transpiration method
[2] = Molar enthalpy of transition or fusion; settings: DSC

## CC(C)COc1ccccc1C(=O)O [2-iso-butoxybenzoic acid]
[1]; Liquid
  mass density: 1100 ± 100 kg/m3
[1]; 343.9 K, Liquid
  vapor or sublimation pressure: 0.0008 ± 7e-05 kPa
[1]; 353.1 K, Liquid
  vapor or sublimation pressure: 0.00176 ± 0.00012 kPa
[1]; 363.2 K, Liquid
  vapor or sublimation pressure: 0.0041 ± 0.00027 kPa
[1]; 365.2 K, Liquid
  vapor or sublimation pressure: 0.0048 ± 0.00031 kPa
[1]; 369.2 K, Liquid
  vapor or sublimation pressure: 0.00662 ± 0.00046 kPa
[1]; 371.2 K, Liquid
  vapor or sublimation pressure: 0.00775 ± 0.00056 kPa
[1]; 371.4 K, Liquid
  vapor or sublimation pressure: 0.00817 ± 0.00056 kPa and 0.00791 ± 0.00054 kPa
[1]; 371.5 K, Liquid
  vapor or sublimation pressure: 0.00808 ± 0.00058 kPa
[1]; 374.2 K, Liquid
  vapor or sublimation pressure: 0.01017 ± 0.00068 kPa
[1]; 374.4 K, Liquid
  vapor or sublimation pressure: 0.00999 ± 0.00066 kPa
[1]; 376.5 K, Liquid
  vapor or sublimation pressure: 0.01179 ± 0.00078 kPa
[1]; 377.3 K, Liquid
  vapor or sublimation pressure: 0.01245 ± 0.00084 kPa
[1]; 378.5 K, Liquid
  vapor or sublimation pressure: 0.01391 ± 0.00092 kPa
[1]; 379.2 K, Liquid
  vapor or sublimation pressure: 0.01467 ± 0.00096 kPa
[1]; 380.1 K, Liquid
  vapor or sublimation pressure: 0.01546 ± 0.001 kPa
[1]; 380.2 K, Liquid
  vapor or sublimation pressure: 0.01553 ± 0.001 kPa
[1]; 382.4 K, Liquid
  vapor or sublimation pressure: 0.0177 ± 0.0011 kPa
[1]; 384.2 K, Liquid
  vapor or sublimation pressure: 0.02038 ± 0.0013 kPa
[1]; 385.8 K, Liquid
  vapor or sublimation pressure: 0.02237 ± 0.0014 kPa
[1]; 388.1 K, Liquid
  vapor or sublimation pressure: 0.02622 ± 0.0017 kPa
[1]; 390.3 K, Liquid
  vapor or sublimation pressure: 0.03064 ± 0.002 kPa
[1]; 393 K, Liquid
  vapor or sublimation pressure: 0.03639 ± 0.0023 kPa
[1]; 395.2 K, Liquid
  vapor or sublimation pressure: 0.04478 ± 0.0029 kPa
[1]; 398.1 K, Liquid
  vapor or sublimation pressure: 0.05373 ± 0.0034 kPa

## COc1ccccc1C(=O)O [2-methoxybenzoic acid]
[1]; 342.4 K, Crystal
  vapor or sublimation pressure: 0.00098 ± 8e-05 kPa
[1]; 346.2 K, Crystal
  vapor or sublimation pressure: 0.00152 ± 0.0001 kPa
[1]; 348.2 K, Crystal
  vapor or sublimation pressure: 0.00181 ± 0.00012 kPa
[1]; 350.3 K, Crystal
  vapor or sublimation pressure: 0.00221 ± 0.00015 kPa
[1]; 352.2 K, Crystal
  vapor or sublimation pressure: 0.00272 ± 0.00018 kPa
[1]; 354.3 K, Crystal
  vapor or sublimation pressure: 0.00347 ± 0.00023 kPa
[1]; 356.2 K, Crystal
  vapor or sublimation pressure: 0.00419 ± 0.00028 kPa
[1]; 358.9 K, Crystal
  vapor or sublimation pressure: 0.00536 ± 0.00035 kPa
[1]; 361.4 K, Crystal
  vapor or sublimation pressure: 0.0068 ± 0.00048 kPa
[1]; 363.2 K, Crystal
  vapor or sublimation pressure: 0.00813 ± 0.00057 kPa
[1]; 366.2 K, Crystal
  vapor or sublimation pressure: 0.01064 ± 0.00072 kPa
[1]; 367.9 K, Crystal
  vapor or sublimation pressure: 0.01262 ± 0.00085 kPa
[1]; 371.5 K, Crystal
  vapor or sublimation pressure: 0.01728 ± 0.0011 kPa

## CC(C)COc1cccc(C(=O)O)c1 [3-iso-butoxybenzoic acid]
[2]; Crystal
  Molar enthalpy of transition or fusion: 6.02 ± 0.167 kcal/mol
[1]; Crystal
  mass density: 1130 ± 200 kg/m3
[1]; 354.8 K, Liquid
  vapor or sublimation pressure: 0.00162 ± 0.00012 kPa
[1]; 356.2 K, Liquid
  vapor or sublimation pressure: 0.00181 ± 0.00012 kPa
[1]; 357.4 K, Liquid
  vapor or sublimation pressure: 0.00202 ± 0.00014 kPa
[1]; 359.5 K, Liquid
  vapor or sublimation pressure: 0.00238 ± 0.00015 kPa
[1]; 361.2 K, Liquid
  vapor or sublimation pressure: 0.00281 ± 0.00019 kPa
[1]; 363 K, Liquid
  vapor or sublimation pressure: 0.0032 ± 0.0002 kPa
[1]; 364.2 K, Liquid
  vapor or sublimation pressure: 0.00358 ± 0.00023 kPa
[1]; 365.7 K, Liquid
  vapor or sublimation pressure: 0.00406 ± 0.00027 kPa
[1]; 368.3 K, Liquid
  vapor or sublimation pressure: 0.00493 ± 0.00032 kPa
[1]; 370.9 K, Liquid
  vapor or sublimation pressure: 0.00601 ± 0.00043 kPa
[1]; 372.7 K, Liquid
  vapor or sublimation pressure: 0.00707 ± 0.00049 kPa
[1]; 373.7 K, Liquid
  vapor or sublimation pressure: 0.00763 ± 0.00053 kPa
[1]; 375.3 K, Liquid
  vapor or sublimation pressure: 0.00871 ± 0.00059 kPa
[1]; 378.2 K, Liquid
  vapor or sublimation pressure: 0.01099 ± 0.00074 kPa
[1]; 380.1 K, Liquid
  vapor or sublimation pressure: 0.013 ± 0.00086 kPa
[1]; 382.7 K, Liquid
  vapor or sublimation pressure: 0.01579 ± 0.001 kPa
[1]; Crystal, DTA
  Normal melting temperature: 80.4 ± 1.1 °C
[1]; Crystal, visual observation
  Normal melting temperature: 80.00 ± 3 °C

## CCCCOc1ccc(C(=O)O)cc1 [4-butoxybenzoic acid]
[1]; 377.8 K, Crystal
  vapor or sublimation pressure: 0.00164 ± 0.00012 kPa
[1]; 383.4 K, Crystal
  vapor or sublimation pressure: 0.00285 ± 0.0002 kPa
[1]; 391 K, Crystal
  vapor or sublimation pressure: 0.00586 ± 0.00038 kPa
[1]; 396.2 K, Crystal
  vapor or sublimation pressure: 0.00973 ± 0.00066 kPa
[1]; 399.3 K, Crystal
  vapor or sublimation pressure: 0.01214 ± 0.00082 kPa
[1]; 401.3 K, Crystal
  vapor or sublimation pressure: 0.01536 ± 0.001 kPa
[1]; 406.4 K, Crystal
  vapor or sublimation pressure: 0.02366 ± 0.0015 kPa
[1]; 411.4 K, Crystal
  vapor or sublimation pressure: 0.03676 ± 0.0024 kPa
[1]; 415.4 K, Crystal
  vapor or sublimation pressure: 0.04923 ± 0.0032 kPa
[1]; 417.3 K, Crystal
  vapor or sublimation pressure: 0.05826 ± 0.0037 kPa and 0.05838 ± 0.0037 kPa

## CC(C)COc1ccc(C(=O)O)cc1 [4-iso-butoxybenzoic acid]
[2]; Crystal 1
  Molar enthalpy of transition or fusion: 4.52 ± 0.143 kcal/mol
[2]; Crystal 2
  Molar enthalpy of transition or fusion: 0.669 ± 0.0956 kcal/mol
[1]; Crystal
  mass density: 1130 ± 200 kg/m3
[1]; 342.3 K, Crystal 2
  vapor or sublimation pressure: 7e-05 ± 2e-05 kPa
[1]; 343.5 K, Crystal 2
  vapor or sublimation pressure: 8e-05 ± 2e-05 kPa
[1]; 346.4 K, Crystal 2
  vapor or sublimation pressure: 0.00011 ± 2e-05 kPa
[1]; 348.5 K, Crystal 2
  vapor or sublimation pressure: 0.00014 ± 2e-05 kPa
[1]; 349.2 K, Crystal 2
  vapor or sublimation pressure: 0.00015 ± 2e-05 kPa
[1]; 353.4 K, Crystal 2
  vapor or sublimation pressure: 0.00026 ± 2e-05 kPa
[1]; 353.6 K, Crystal 2
  vapor or sublimation pressure: 0.00025 ± 2e-05 kPa
[1]; 356.9 K, Crystal 2
  vapor or sublimation pressure: 0.00038 ± 3e-05 kPa
[1]; 359.2 K, Crystal 2
  vapor or sublimation pressure: 0.00046 ± 4e-05 kPa
[1]; 360.4 K, Crystal 2
  vapor or sublimation pressure: 0.00055 ± 5e-05 kPa
[1]; 361.6 K, Crystal 2
  vapor or sublimation pressure: 0.00066 ± 5e-05 kPa
[1]; 363.4 K, Crystal 2
  vapor or sublimation pressure: 0.00078 ± 5e-05 kPa
[1]; 363.5 K, Crystal 2
  vapor or sublimation pressure: 0.00078 ± 5e-05 kPa
[1]; 365.4 K, Crystal 2
  vapor or sublimation pressure: 0.00096 ± 7e-05 kPa
[1]; 365.9 K, Crystal 2
  vapor or sublimation pressure: 0.00102 ± 7e-05 kPa
[1]; 367.8 K, Crystal 2
  vapor or sublimation pressure: 0.00122 ± 9e-05 kPa
[1]; 368.2 K, Crystal 2
  vapor or sublimation pressure: 0.00119 ± 8e-05 kPa
[1]; 368.7 K, Crystal 2
  vapor or sublimation pressure: 0.00134 ± 0.0001 kPa
[1]; 368.9 K, Crystal 2
  vapor or sublimation pressure: 0.0014 ± 0.0001 kPa
[1]; 370.7 K, Crystal 2
  vapor or sublimation pressure: 0.00162 ± 0.00012 kPa
[1]; 373.1 K, Crystal 2
  vapor or sublimation pressure: 0.00199 ± 0.00013 kPa
[1]; 373.3 K, Crystal 2
  vapor or sublimation pressure: 0.00216 ± 0.00015 kPa
[1]; 378.6 K, Crystal 2
  vapor or sublimation pressure: 0.00342 ± 0.00023 kPa
[1]; 379.3 K, Crystal 2
  vapor or sublimation pressure: 0.00369 ± 0.00025 kPa
[1]; 381 K, Crystal 2
  vapor or sublimation pressure: 0.00422 ± 0.00027 kPa
[1]; 388.5 K, Crystal 2
  vapor or sublimation pressure: 0.0089 ± 0.0006 kPa
[1]; 390.5 K, Crystal 2
  vapor or sublimation pressure: 0.01034 ± 0.0007 kPa
[1]; 393.6 K, Crystal 2
  vapor or sublimation pressure: 0.01381 ± 0.00092 kPa and 0.01388 ± 0.00092 kPa
[1]; 393.7 K, Crystal 2
  vapor or sublimation pressure: 0.0142 ± 0.00094 kPa
[1]; 393.8 K, Crystal 2
  vapor or sublimation pressure: 0.01384 ± 0.00092 kPa
[1]; 395.2 K, Crystal 2
  vapor or sublimation pressure: 0.01617 ± 0.0011 kPa
[1]; 396.9 K, Crystal 2
  vapor or sublimation pressure: 0.01961 ± 0.0013 kPa
[1]; 397.4 K, Crystal 2
  vapor or sublimation pressure: 0.02032 ± 0.0013 kPa
[1]; 398.6 K, Crystal 2
  vapor or sublimation pressure: 0.02126 ± 0.0014 kPa
[1]; 399 K, Crystal 2
  vapor or sublimation pressure: 0.02336 ± 0.0015 kPa
[1]; 399.9 K, Crystal 2
  vapor or sublimation pressure: 0.02413 ± 0.0016 kPa
[1]; 402.6 K, Crystal 2
  vapor or sublimation pressure: 0.03218 ± 0.002 kPa
[1]; 403.2 K, Crystal 2
  vapor or sublimation pressure: 0.03283 ± 0.0021 kPa
[1]; Crystal 1, DTA
  Normal melting temperature: 142.2 ± 1.1 °C
[1]; Crystal 2, DTA
  Triple point temperature: 412.5 ± 1.1 K
[1]; Crystal, visual observation
  Normal melting temperature: 140.00 ± 3 °C
